From ChEMBL document CHEMBL4011656, “Discovery and Optimization of Chromeno[2,3-c]pyrrol-9(2H)-ones as Novel Selective and Orally Bioavailable Phosphodiesterase 5 Inhibitors for the Treatment of Pulmonary Arterial Hypertension” (J Med Chem, 2017)
pIC50: −log10 of the molar value. Activity calls are given as the source filed them. The calls are words filed in the database; no cut-off is given here.

Tests used:
[1] = Tmax in Sprague-Dawley rat at 5 mg/kg, po by LC-MS/MS analysis; type: ADME, organism-based; conditions: in vivo
[2] = Cmax in Sprague-Dawley rat at […], iv by LC-MS/MS analysis; type: ADME, organism-based; design: dose 2.5 mg/kg, route intravenous; conditions: in vivo
[3] = AUC (0 to t) in Sprague-Dawley rat at […], iv by LC-MS/MS analysis; type: ADME, organism-based; conditions: in vivo
[4] = AUC (0 to infinity) in Sprague-Dawley rat at 5 mg/kg, po by LC-MS/MS analysis; type: ADME, organism-based; design: dose 5 mg/kg, time infinity, route oral; conditions: in vivo
[5] = AUC (0 to infinity) in Sprague-Dawley rat at […], iv by LC-MS/MS analysis; type: ADME, organism-based; design: dose 2.5 mg/kg, time infinity, route intravenous; conditions: in vivo
[6] = MRT (0 to t) in Sprague-Dawley rat at 5 mg/kg, po by LC-MS/MS analysis; type: ADME, organism-based; conditions: in vivo
[7] = Oral bioavailability in Sprague-Dawley rat at 5 mg/kg by LC-MS/MS analysis; type: ADME, organism-based; conditions: in vivo
[8] = molecular target: Dual specificity calcium/calmodulin-dependent 3',5'-cyclic nucleotide phosphodiesterase 1B (Homo sapiens, UniProt Q01064); assay: Inhibition of PDE1B (10 to 487 residues) (unknown origin) expressed in Escherichia coli BL21(DE3) using [3H]cAMP or [3H]cGMP as substrate after 15 mins by liquid scintillation counting method
[9] = molecular target: cGMP-dependent 3',5'-cyclic phosphodiesterase (Homo sapiens, UniProt O00408); assay: Inhibition of PDE2A (580 to 919 residues) (unknown origin) expressed in Escherichia coli BL21(DE3) using [3H]cGMP or [3H]cAMP as substrate after 15 mins by liquid scintillation counting method
[10] = molecular target: cGMP-inhibited 3',5'-cyclic phosphodiesterase 3A (Homo sapiens, UniProt Q14432); assay: Inhibition of PDE3A (679 to 1087 residues) (unknown origin) expressed in Escherichia coli BL21(DE3) using [3H]cAMP or [3H]cGMP as substrate after 15 mins by liquid scintillation counting method
[11] = molecular target: 3',5'-cyclic-AMP phosphodiesterase 4D (Homo sapiens, UniProt Q08499); assay: Inhibition of PDE4D2 (86 to 413 residues) (unknown origin) expressed in Escherichia coli BL21(DE3) using [3H]cAMP or [3H]cGMP as substrate after 15 mins by liquid scintillation counting method
[12] = molecular target: Rod cGMP-specific 3',5'-cyclic phosphodiesterase subunit alpha (Homo sapiens, UniProt P16499); assay: Inhibition of PDE6A (484 to 817 residues) (unknown origin) expressed in Escherichia coli BL21(DE3) using [3H]cGMP or [3H]cAMP as substrate after 15 mins by liquid scintillation counting method
[13] = molecular target: High affinity cAMP-specific and IBMX-insensitive 3',5'-cyclic phosphodiesterase 8A (Homo sapiens, UniProt O60658); assay: Inhibition of PDE8A1 (480 to 820 residues) (unknown origin) using [3H]cGMP or [3H]cAMP as substrate after 15 mins by liquid scintillation counting method
[14] = molecular target: cAMP and cAMP-inhibited cGMP 3',5'-cyclic phosphodiesterase 10A (Homo sapiens, UniProt Q9Y233); assay: Inhibition of PDE10A (449 to 770 residues) (unknown origin) expressed in Escherichia coli BL21(DE3) using [3H]cGMP or [3H]cAMP as substrate after 15 mins by liquid scintillation counting method
Liver [15] = assay: Intrinsic clearance in rat liver microsomes at 0.5 uM; type: ADME, microsome
Liver [16] = assay: Intrinsic clearance in human liver microsomes at 0.5 uM; type: ADME, microsome
[17] = Apparent clearance in human liver microsomes at 0.5 uM; type: ADME, microsome; conditions: read-out: CLH(app)
Cytochrome P450 2C8 = molecular target: T1, Cytochrome P450 2C8 (Homo sapiens, UniProt P10632); assay: Inhibition of CYP2C8 in human microsomes in presence of NADPH; type: ADME
T1 sequence (P10632 whole entry): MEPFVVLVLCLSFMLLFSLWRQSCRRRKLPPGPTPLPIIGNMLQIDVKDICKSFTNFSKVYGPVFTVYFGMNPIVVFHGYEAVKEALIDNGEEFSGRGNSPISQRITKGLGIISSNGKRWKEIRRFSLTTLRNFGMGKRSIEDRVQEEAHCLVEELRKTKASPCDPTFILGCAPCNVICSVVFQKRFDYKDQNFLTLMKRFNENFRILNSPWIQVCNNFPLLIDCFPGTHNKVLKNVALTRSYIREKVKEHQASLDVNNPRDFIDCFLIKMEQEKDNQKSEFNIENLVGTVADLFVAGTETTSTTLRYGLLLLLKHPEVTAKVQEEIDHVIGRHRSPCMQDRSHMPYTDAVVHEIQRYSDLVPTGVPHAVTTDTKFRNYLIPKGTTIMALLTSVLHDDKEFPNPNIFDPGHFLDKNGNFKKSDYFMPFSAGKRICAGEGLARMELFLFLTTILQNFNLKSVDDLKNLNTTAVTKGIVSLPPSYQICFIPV

Cytochrome P450 2C19 = Cytochrome P450 2C19 (Homo sapiens, UniProt P33261); assay: Inhibition of CYP2C19 in human microsomes in presence of NADPH; type: ADME
Cytochrome P450 3A4 = Cytochrome P450 3A4 (Homo sapiens, UniProt P08684); assay: Inhibition of CYP3A4 in human microsomes in presence of NADPH; type: ADME
[18] = Acute toxicity in Kunming mouse administered as single oral dose measured up to 2 weeks post dose; conditions: in vivo
Mus musculus [19] = assay: Acute toxicity in Kunming mouse assessed as poisoning symptoms at 1000 to 1500 mg/kg, po administered as single dose measured up to 2 weeks post dose; type: organism-based; conditions: in vivo, 336 h
Mus musculus [20] = assay: Acute toxicity in Kunming mouse assessed as mortality at 1000 to 1500 mg/kg, po administered as single dose measured up to 2 weeks post dose; type: organism-based; conditions: in vivo, 336 h
Mus musculus [21] = assay: Acute toxicity in Kunming mouse assessed as effect on water consumption at 1000 to 1500 mg/kg, po administered as single dose measured up to 2 weeks post dose; type: organism-based; conditions: in vivo, 336 h
Mus musculus [22] = assay: Acute toxicity in Kunming mouse assessed as effect on food consumption at 1000 to 1500 mg/kg, po administered as single dose measured up to 2 weeks post dose; type: organism-based; conditions: in vivo, 336 h
Mus musculus [23] = assay: Acute toxicity in Kunming mouse assessed as effect on body weight at 1000 to 1500 mg/kg, po administered as single dose measured up to 2 weeks post dose; type: organism-based; conditions: in vivo, 336 h
Rattus norvegicus [24] = assay: Toxicity in Sprague-Dawley rat assessed as effect on body weight up to 300 mg/kg, po daily for 2 weeks; type: organism-based; conditions: in vivo, 336 h
Rattus norvegicus [25] = assay: Toxicity in Sprague-Dawley rat assessed as overt toxicity up to 300 mg/kg, po daily for 2 weeks; type: organism-based; conditions: in vivo, 336 h
Rattus norvegicus [26] = assay: Reduction in MCT-induced increase in mean pulmonary arterial pressure in Wistar rat model of monocrotaline pulmonary arterial hypertension assessed as mean pulmonary arterial pressure at 5 mg/kg, po for 3 weeks (reference value: 32.74 mmHg); type: functional
Rattus norvegicus [27] = assay: Reduction in MCT-induced increase in right ventricle hypertrophy index in Wistar rat model of monocrotaline pulmonary arterial hypertension at 5 mg/kg, po for 3 weeks; type: functional, organism-based
Liver [28] = assay: Drug metabolism in rat liver microsomes assessed as metabolic rate; type: ADME, microsome

Chain of Dual specificity calcium/calmodulin-dependent 3',5'-cyclic nucleotide phosphodiesterase 1B (Q01064 whole entry, the tested form may be a part): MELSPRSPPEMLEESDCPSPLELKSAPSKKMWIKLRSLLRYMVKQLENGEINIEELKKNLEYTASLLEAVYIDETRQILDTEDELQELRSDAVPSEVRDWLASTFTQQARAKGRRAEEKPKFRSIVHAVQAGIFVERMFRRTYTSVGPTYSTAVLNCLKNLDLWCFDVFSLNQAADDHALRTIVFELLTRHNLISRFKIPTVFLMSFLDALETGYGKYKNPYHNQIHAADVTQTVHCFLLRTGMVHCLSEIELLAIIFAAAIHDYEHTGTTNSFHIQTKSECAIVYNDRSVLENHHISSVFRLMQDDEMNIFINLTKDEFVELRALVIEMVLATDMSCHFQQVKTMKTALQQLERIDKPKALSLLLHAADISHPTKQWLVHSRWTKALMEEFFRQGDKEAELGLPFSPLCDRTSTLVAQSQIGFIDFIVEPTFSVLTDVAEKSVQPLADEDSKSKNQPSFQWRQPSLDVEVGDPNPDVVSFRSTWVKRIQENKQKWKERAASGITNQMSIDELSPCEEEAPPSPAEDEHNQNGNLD
Chain of Cytochrome P450 3A4 (P08684 whole entry): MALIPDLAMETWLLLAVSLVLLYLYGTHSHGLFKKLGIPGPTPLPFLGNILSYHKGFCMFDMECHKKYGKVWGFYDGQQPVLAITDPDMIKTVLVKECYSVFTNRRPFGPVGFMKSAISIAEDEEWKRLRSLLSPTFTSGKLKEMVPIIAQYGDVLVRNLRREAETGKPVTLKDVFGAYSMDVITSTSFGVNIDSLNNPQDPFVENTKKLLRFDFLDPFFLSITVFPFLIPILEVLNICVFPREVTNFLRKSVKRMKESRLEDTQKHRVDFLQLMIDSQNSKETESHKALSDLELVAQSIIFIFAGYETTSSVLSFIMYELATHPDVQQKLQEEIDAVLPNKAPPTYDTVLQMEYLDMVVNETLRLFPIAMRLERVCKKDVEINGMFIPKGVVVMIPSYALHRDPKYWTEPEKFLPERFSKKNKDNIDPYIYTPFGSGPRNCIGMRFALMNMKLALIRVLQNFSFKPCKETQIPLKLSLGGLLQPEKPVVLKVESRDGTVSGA
Chain of High affinity cAMP-specific and IBMX-insensitive 3',5'-cyclic phosphodiesterase 8A (O60658 whole entry, the tested form may be a part): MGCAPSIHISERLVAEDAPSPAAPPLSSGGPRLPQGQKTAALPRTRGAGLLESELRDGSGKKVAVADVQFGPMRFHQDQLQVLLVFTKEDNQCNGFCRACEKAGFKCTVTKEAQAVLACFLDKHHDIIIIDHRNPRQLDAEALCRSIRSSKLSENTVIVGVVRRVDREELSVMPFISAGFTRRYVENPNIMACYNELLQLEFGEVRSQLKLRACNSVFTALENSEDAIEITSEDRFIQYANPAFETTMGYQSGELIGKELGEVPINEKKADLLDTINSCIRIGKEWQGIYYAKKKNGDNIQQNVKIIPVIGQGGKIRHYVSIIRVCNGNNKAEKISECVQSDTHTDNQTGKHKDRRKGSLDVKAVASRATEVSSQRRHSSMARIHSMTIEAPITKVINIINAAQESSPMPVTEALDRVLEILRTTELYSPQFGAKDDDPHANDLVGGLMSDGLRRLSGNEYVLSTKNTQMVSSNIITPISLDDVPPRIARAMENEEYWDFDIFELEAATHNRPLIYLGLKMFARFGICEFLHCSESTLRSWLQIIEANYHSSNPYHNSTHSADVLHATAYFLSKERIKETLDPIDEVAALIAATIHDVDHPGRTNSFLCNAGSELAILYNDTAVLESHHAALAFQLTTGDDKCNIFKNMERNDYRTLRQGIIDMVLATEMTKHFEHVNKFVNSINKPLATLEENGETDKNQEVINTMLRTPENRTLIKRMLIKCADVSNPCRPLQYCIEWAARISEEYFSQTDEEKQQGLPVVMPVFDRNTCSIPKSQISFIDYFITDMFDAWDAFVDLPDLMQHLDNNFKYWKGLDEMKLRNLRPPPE
Chain of cAMP and cAMP-inhibited cGMP 3',5'-cyclic phosphodiesterase 10A (Q9Y233 whole entry, the tested form may be a part): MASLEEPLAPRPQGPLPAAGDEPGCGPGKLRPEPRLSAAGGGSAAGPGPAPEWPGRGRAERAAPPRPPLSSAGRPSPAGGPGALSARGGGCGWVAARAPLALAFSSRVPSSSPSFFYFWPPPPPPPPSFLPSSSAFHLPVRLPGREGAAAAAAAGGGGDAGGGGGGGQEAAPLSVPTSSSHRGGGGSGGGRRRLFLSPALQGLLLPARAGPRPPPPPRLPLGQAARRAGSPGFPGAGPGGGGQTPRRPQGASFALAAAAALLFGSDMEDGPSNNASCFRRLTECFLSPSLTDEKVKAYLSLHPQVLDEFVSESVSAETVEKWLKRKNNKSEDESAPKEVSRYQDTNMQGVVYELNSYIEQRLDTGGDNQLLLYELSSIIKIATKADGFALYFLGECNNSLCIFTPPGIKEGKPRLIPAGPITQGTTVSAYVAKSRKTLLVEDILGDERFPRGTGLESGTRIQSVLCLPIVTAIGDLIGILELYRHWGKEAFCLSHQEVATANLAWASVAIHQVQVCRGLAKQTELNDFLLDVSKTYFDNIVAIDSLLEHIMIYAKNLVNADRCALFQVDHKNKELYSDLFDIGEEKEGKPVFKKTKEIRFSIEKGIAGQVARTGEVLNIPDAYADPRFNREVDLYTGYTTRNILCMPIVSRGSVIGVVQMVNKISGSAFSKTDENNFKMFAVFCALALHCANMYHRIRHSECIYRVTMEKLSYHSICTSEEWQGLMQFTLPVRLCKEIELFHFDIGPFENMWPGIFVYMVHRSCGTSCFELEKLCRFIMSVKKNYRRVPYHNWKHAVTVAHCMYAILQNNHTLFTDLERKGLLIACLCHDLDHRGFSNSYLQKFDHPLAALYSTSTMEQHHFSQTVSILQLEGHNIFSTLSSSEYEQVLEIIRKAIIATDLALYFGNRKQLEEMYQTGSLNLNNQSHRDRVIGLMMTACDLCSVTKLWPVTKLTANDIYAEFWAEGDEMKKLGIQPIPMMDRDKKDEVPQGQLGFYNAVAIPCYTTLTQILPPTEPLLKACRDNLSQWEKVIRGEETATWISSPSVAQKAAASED
Chain of 3',5'-cyclic-AMP phosphodiesterase 4D (Q08499 whole entry, the tested form may be a part): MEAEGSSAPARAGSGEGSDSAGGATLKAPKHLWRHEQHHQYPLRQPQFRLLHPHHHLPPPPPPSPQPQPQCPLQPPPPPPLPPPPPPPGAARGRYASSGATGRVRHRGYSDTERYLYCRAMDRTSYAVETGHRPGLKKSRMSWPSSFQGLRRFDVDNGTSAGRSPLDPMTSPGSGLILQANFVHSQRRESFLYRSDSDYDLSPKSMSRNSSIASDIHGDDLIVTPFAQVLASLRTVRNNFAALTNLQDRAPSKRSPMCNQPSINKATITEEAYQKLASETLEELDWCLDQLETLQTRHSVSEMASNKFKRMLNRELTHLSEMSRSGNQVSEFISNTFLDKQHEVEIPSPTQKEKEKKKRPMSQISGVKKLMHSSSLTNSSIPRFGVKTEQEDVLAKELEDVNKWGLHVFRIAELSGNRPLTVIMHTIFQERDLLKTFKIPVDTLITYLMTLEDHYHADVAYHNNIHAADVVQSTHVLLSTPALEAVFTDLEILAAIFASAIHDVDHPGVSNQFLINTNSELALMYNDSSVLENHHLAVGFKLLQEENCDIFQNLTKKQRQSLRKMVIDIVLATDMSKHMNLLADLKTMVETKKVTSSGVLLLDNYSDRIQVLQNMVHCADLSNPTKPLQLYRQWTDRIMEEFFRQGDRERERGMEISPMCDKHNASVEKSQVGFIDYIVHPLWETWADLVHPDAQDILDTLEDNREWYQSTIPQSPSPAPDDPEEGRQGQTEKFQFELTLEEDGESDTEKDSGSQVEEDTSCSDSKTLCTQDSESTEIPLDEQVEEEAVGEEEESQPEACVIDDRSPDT
Chain of Cytochrome P450 2C19 (P33261 whole entry): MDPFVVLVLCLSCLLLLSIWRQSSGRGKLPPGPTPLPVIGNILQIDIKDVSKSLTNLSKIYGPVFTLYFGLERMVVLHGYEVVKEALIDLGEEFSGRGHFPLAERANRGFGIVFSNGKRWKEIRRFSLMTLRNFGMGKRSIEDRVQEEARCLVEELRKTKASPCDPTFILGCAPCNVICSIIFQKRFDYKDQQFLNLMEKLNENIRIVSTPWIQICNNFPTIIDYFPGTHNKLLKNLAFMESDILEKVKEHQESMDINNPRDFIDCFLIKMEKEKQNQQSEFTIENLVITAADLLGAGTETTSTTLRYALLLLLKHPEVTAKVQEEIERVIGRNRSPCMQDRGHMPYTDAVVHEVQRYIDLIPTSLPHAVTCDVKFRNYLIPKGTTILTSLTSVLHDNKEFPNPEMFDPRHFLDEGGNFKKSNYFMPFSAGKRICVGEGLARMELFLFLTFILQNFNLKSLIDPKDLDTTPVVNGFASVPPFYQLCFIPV

O=c1c2ccccc2oc2c(Cc3ccc4c(c3)OCO4)[nH]c(-c3nccs3)c12
Tmax [1]: 4 h | Cmax [2]: 2.36 µg/mL | AUC(0-t) [3]: 1.7 µg·h/mL | AUC(0-inf) [4]: 2.03 µg·h/mL | AUC(0-inf) [5]: 1.73 µg·h/mL | MRT last [6]: 4.76 h | bioavailability [7]: 63.4% | pIC50 [8]: < 5.00 | pIC50 [9]: 6.44 | pIC50 [10]: < 5.00 | pIC50 [11]: 5.56 | pIC50 [12]: 7.24 | pIC50 [13]: 5.21 | pIC50 [14]: 6.82 | CLH (Liver [15]): 56.1 µL/min/mg | CLH (Liver [16]): 24.8 µL/min/mg | CLint scaled at 0.5 µM [17]: 1.43 L/h/kg | pIC50 (Cytochrome P450 2C8): < 4.60 | pIC50 (Cytochrome P450 2C19): < 4.70 | pIC50 (Cytochrome P450 3A4): < 4.60 | MTD at 336 h [18]: > 1500 mg/kg | Activity (Mus musculus [19]): Non-Toxic | Activity (Mus musculus [20]): Non-Toxic | Activity (Mus musculus [21]): Non-Toxic | Activity (Mus musculus [22]): Non-Toxic | Activity (Mus musculus [23]): Non-Toxic | Activity (Rattus norvegicus [24]): Non-Toxic | Activity (Rattus norvegicus [25]): Non-Toxic | Activity (Rattus norvegicus [26]): 18.65 mmHg | Activity (Rattus norvegicus [27]): Active | K (Liver [28]): 0.0281
